Test results from patent US12559474B2, “Triazine derivatives having virus replication inhibitory activity and pharmaceutical composition comprising the same” (priority 2021, dated 2026).
pEC50, pIC50: −log10 of the molar value. Read-outs that look alike come from different tables or passages of the source.

Assays:
SARS-CoV-2 3CL protease = SARS-CoV-2 3CL protease (Severe acute respiratory syndrome coronavirus 2, UniProt P0DTD1); assay: biochemical; details: 50% SARS-CoV-2 3CL protease inhibitory concentration, read-out: IC50
SARS-CoV-2 = assay: microbe, parasite or virus in culture; format: cell-based; details: Severe acute respiratory syndrome coronavirus 2, VeroE6/TMPRSS2, 72 h, 50% SARS-CoV-2 infected cell death inhibitory concentration, VeroE6/TMPRSS2 cells, 3 days culture

| SMILES | pIC50 (SARS-CoV-2 3CL protease; given as class symbols) | pEC50 (SARS-CoV-2; class symbols) | pIC50 (SARS-CoV-2 3CL protease; RapidFire MS) | pEC50 (SARS-CoV-2; CellTiter-Glo 2.0) |
| --- | --- | --- | --- | --- |
| O=c1[nH]cccc1Cn1c(=O)nc(Nc2cc3cn(CCOC(F)(F)F)nc3cc2Cl)n(Cc2cc(F)c(F)c(F)c2)c1=O [Compound I-0381] | > 7.00 | 5.00 to 6.00 |  |  |
| Cn1cnc(Cn2c(=O)nc(Nc3cc4cn(CC5CCO5)nc4cc3Cl)n(Cc3cc(Cl)c(F)cc3F)c2=O)n1 (racemic) [II-0408] | > 7.00 | 5.00 to 6.00 |  |  |
| CCCc1cc(F)c(F)cc1Cn1c(Nc2cc3cn(C)nc3cc2Cl)nc(=O)n(-c2cncc(C)c2)c1=O [II-0069] | > 7.00 | 5.00 to 6.00 |  |  |
| Cn1cnc(Cn2c(=O)nc(Nc3cc4cn(CC5CCCO5)nc4cc3Cl)n(Cc3cc(Cl)c(F)cc3F)c2=O)n1 (racemic) [II-0409] | > 7.00 | 5.00 to 6.00 |  |  |
| CNc1nc2cc(Cl)c(Nc3nc(=O)n(Cc4ccc[nH]c4=O)c(=O)n3Cc3cc(F)c(F)c(F)c3)cc2s1 [Compound I-0467] | > 7.00 | 5.00 to 6.00 |  |  |
| COc1ccc(Nc2nc(=O)n(-c3cncc4ccccc34)c(=O)n2Cc2ccc(F)c(C#N)c2)c(C)c1 [II-0169] | > 7.00 | > 6.00 |  |  |
| Cn1cnc(Cn2c(=O)nc(Nc3cc4c(C(F)(F)F)n(C)nc4cc3Cl)n(Cc3cc(F)c(F)cc3F)c2=O)n1 [II-0468] | > 7.00 | 5.00 to 6.00 |  |  |
| COc1cc(C)c(Nc2nc(=O)n(-c3cncc(C)c3)c(=O)n2Cc2ccc(F)c(C#N)c2)cn1 [II-0122] | > 7.00 | 5.00 to 6.00 |  |  |
| Cc1cncc(-n2c(=O)nc(Nc3cc4cn(C)nc4cc3Cl)n(Cc3ccc(F)c(C#N)c3C)c2=O)c1 [II-0020] | > 7.00 | 5.00 to 6.00 |  |  |
| COC(=O)COc1ccc(Nc2nc(=O)n(Cc3ccc[nH]c3=O)c(=O)n2Cc2cc(F)c(F)c(F)c2)c(Cl)c1 [Compound I-0462] | > 7.00 | 5.00 to 6.00 |  |  |
| Cc1cncc(-n2c(=O)nc(Nc3c(Cl)cc4nn(C)cc4c3F)n(Cc3ccc(F)c(C#N)c3)c2=O)c1 [II-0458] | > 7.00 | > 6.00 |  |  |
| Cc1cc(F)c(C#N)cc1Cn1c(Nc2ccc3nn(C)cc3c2)nc(=O)n(-c2cncc(Cl)c2)c1=O [II-0571] |  |  | 8.27 | 6.72 |
| Cc1cncc(-n2c(=O)nc(Nc3cc4cn(C)nc4cc3Cl)n(Cc3cc(Cl)ccc3C)c2=O)c1 [II-0332] |  |  | 8.70 | 7.27 |
| Cc1cncc(-n2c(=O)nc(Nc3cc4c(cc3Cl)OCC4)n(Cc3ccc(F)c(C#N)c3)c2=O)c1 [II-0156] | > 7.00 | > 6.00 |  |  |
| COc1ccc(Nc2nc(=O)n(Cc3ccc[nH]c3=O)c(=O)n2Cc2cc(Cl)ccc2Cl)cc1 [Compound I-0214] | > 7.00 | > 6.00 |  |  |
| COC(=O)Nc1nc2cc(Cl)c(Nc3nc(=O)n(Cc4ncn(C)n4)c(=O)n3Cc3cc(F)c(F)cc3F)cc2s1 [II-0075] | > 7.00 | > 6.00 |  |  |
| COCCCc1c2cc(Nc3nc(=O)n(Cc4ccc[nH]c4=O)c(=O)n3Cc3cc(F)c(F)c(F)c3)c(Cl)cc2nn1C [Compound I-0365] | > 7.00 | 5.00 to 6.00 |  |  |
| Cn1cnc(Cn2c(=O)nc(Nc3cc4cn(C)nc4cc3F)n(Cc3cc(F)c(F)c(F)c3)c2=O)n1 [II-0064] | > 7.00 | 5.00 to 6.00 |  |  |
| Cn1cc2cc(Nc3nc(=O)n(-c4cncc(C(F)(F)F)c4)c(=O)n3Cc3cc(F)c(F)c(F)c3)c(Cl)cc2n1 [II-0273] |  |  | 6.44 | 5.18 |
| Cc1cncc(-n2c(=O)nc(Nc3cc4cn(C)nc4cc3Cl)n(Cc3ccc(F)c(Br)c3)c2=O)c1 [II-0597] | > 7.00 | > 6.00 |  |  |
| Cc1cncc(-n2c(=O)nc(Nc3cc4cn(C)nc4cc3Cl)n(Cc3cc(C#N)c(F)cc3CF)c2=O)c1 [II-0581] | > 7.00 | > 6.00 |  |  |
| Cc1cncc(-n2c(=O)nc(Nc3cc4c(C)n(C)nc4cc3Cl)n(Cc3cc(F)c(F)c(F)c3)c2=O)c1 [II-0449] | > 7.00 | > 6.00 |  |  |
| Cc1cc2nn(C)cc2cc1Nc1nc(=O)n(-c2cncc3ccccc23)c(=O)n1Cc1ccc(F)c(C#N)c1 [Compound I-0431] | > 7.00 | > 6.00 |  |  |
| Cc1cncc(-n2c(=O)nc(Nc3cc4c(cc3Cl)OCC4)n(Cc3cc(F)c(F)c(C#N)c3)c2=O)c1 [II-0131] | > 7.00 | > 6.00 |  |  |
| Cn1cc2cc(Nc3nc(=O)n(Cc4ncccn4)c(=O)n3Cc3cc(Cl)c(F)cc3F)c(Cl)cc2n1 [II-0242] | > 7.00 | > 6.00 |  |  |
| N#Cc1cc(Cn2c(Nc3ccc4ncccc4c3)nc(=O)n(-c3cncc4ccccc34)c2=O)ccc1F [II-0200] | > 7.00 | 5.00 to 6.00 |  |  |
| Cc1c2cc(Nc3nc(=O)n(Cc4ncn(C)n4)c(=O)n3Cc3cc(Cl)c(F)cc3F)c(Cl)cc2nn1C [II-0437] | > 7.00 | > 6.00 |  |  |
| Cn1cnc(Cn2c(=O)nc(Nc3cc4c(N5CCCC5)n(C)nc4cc3Cl)n(Cc3cc(F)c(F)c(F)c3)c2=O)n1 [II-0453] | > 7.00 | 5.00 to 6.00 |  |  |
| Cc1cncc(-n2c(=O)nc(Nc3cc4c(cc3Cl)nc(C)n4C)n(Cc3cc(F)c(F)c(F)c3)c2=O)c1 [II-0356] | > 7.00 | 5.00 to 6.00 |  |  |
